# Experimental data taken from patent publication US11655468B2, “Methods and compositions of chemically modified phage libraries” (priority 2018, dated 2023).
# “Also recorded” adds a separate entry of the source. Read-outs that look alike come from different tables or passages of the source. Non-standard residues stand in square brackets, D forms with d. Residues, ends and D or L forms follow the SMILES beside them. *: point of attachment. X2 = O=C1OC2(c3ccc(C(=O)*)cc31)c1cc(Br)c(O)c(Br)c1Oc1c2cc(Br)c(O)c1Br; 5FAM = O=C1OC2(c3ccc(O)cc3Oc3cc(O)ccc32)c2ccc(C(=O)*)cc21; X1 = CC(=O)c1ccc(OCCCNC(=O)C*)cc1B(O)O; Dap = NC[C@H](N)C(=O)O
# Legend:
# S. aureus [1] = test: Flow cytometry analysis of S. aureus staining by FAM-labeled peptides; assay type: cell-based, S. aureus (ATCC 6538); details: for S. aureus staining of control peptides: 1 μM peptide, 1 mg/mL BSA (FIG. 2C)
# Description: (§1) Each bacterial strain was grown to an OD600˜0.5, washed and diluted with PBS (pH 7.4). The cells (˜1×10^7 cfu/mL) were incubated with various concentrations of FAM-labeled peptide with or without BSA in PBS. After incubation for 1 hour, samples were subjected to cytometric analysis. Data obtained was analyzed via BD FACSDiva software and median fluorescent values were computed from the generated histograms. All flow cytometry experiments were repeated and generated consistent results (see FIG. 14).
# Bacillus subtilis = test: Flow cytometry and fluorescence microscopy of B. subtilis staining; assay type: cell-based; details: up to 10 μM peptide; flow cytometry with 1 mg/mL BSA and microscopy
# Description: as §1
# (§2) Each bacterial strain was grown to an OD600˜1.0, washed and diluted with PBS (pH 7.4). The cells (˜1×10^9 cfu/mL) were incubated with various concentrations of TAMRA-labeled peptide with or without BSA in PBS for 1 hour. The same microscopy procedure described was implemented using filter set 20 HE (excitation: BP 546/12, emission: BP 607/80) suitable for detection of TAMRA fluorescence and images were processed consistently using ImageJ software.
# S. aureus [2] = assay type: cell-based, S. aureus (ATCC 6538); details: for S. aureus cell death by controls: 1 μM and 2 μM, photoirradiation
# Description: (§3) Each bacterial strain was grown to an OD600˜0.7, washed and diluted with PBS (pH 7.4). The cells (˜1×10^8 cfu/mL) were incubated with eosin-conjugated peptides and various controls for 15 minutes. Half of the bacterial suspension was removed and placed in a 96-well plate (Corning 3595). The well was subjected to photoirradiation on the Zeiss microscope using the 20× objective and fluorescein filter to emit blue light for 15 minutes. Cells were diluted in LB media, spread on LB agar plates and incubated overnight at 37° C. The A. baumannii (LOS−) strain was spread on LB agar (+10 μg/mL polymyxin b) and incubated for 24 hours. The amount of cell killing was calculated by comparing the amount of colonies of treated bacteria to an untreated PBS control. All experiments were repeated and the average cell killing of two trials was plotted.
# BSA = BSA (Bos taurus, UniProt P02769); test: Fluorescence anisotropy protein binding (BSA); parameters: species or system bovine; details: 500 nM peptide, PBS pH 7.4, 1 hour, high protein concentrations
# Description: (§4) (A) Flow cytometry comparison of HSA and BSA in enhancing KAM5 binding to S. aureus. (B) Assessing protein binding of KAM5 using fluorescence anisotropy, for which various concentrations of BSA or HSA were delivered to a 96-well plate (Corning 3603) in PBS (pH 7.4). Peptide was added at a final concentration of 500 nM and incubated for 1 hour. Anisotropy values were measured (Ex: 495 nm, Em: 532 nm) and plotted as an average of three trials with standard deviations. Fluorescein was used as a negative control. The results clearly show binding of KAM5 to these serum proteins.
# [3] = test system: methicillin-resistant strain of S. aureus (ATCC 43300); test: Fluorescence microscopy of MRSA staining by TAMRA-labeled peptide; assay type: cell-based; details: 2 μM (FIG. 17)
# Description: as §2
# Escherichia coli = test: Flow cytometry and fluorescence microscopy of E. coli staining; assay type: cell-based
# Description: as §1, §2
# HSA = HSA (Homo sapiens, UniProt P02768); test: Fluorescence anisotropy protein binding (HSA); details: 500 nM peptide, PBS pH 7.4, 1 hour, high protein concentrations
# Description: as §4
# S. aureus [4] = test: Fluorescence microscopy of S. aureus staining by TAMRA-labeled peptides; assay type: cell-based, S. aureus (ATCC 6538)
# Description: as §2
# B. subtilis = test: Photoinactivation of bacteria, B. subtilis; assay type: cell-based; details: 2 μM peptide followed by photoirradiation
# Description: as §3
# MRSA = test: Photoinactivation of bacteria, MRSA; assay type: cell-based, S. aureus (ATCC 43300); details: same experimental conditions, photoirradiation (FIG. 19)
# Description: as §3
# HEK293T cells = details: MTT, 24 hrs, with or without photoirradiation
# Description: HEK293T cells were grown in complete DMEM (containing 10% FBS, 2 mM glutamine and 1% Penicillin/Streptomycin) to about 80% confluency in a 150 mm dish. Cells were removed from the plate with 0.25% trypsin protease solution (containing EDTA) at 37° C. for 5 minutes and pelleted (3,500 rpm, 5 minutes). Cells were diluted in DMEM, distributed to a 96-well plate (Corning 3595) at 30,000 cells/well (100 μL/well) and incubated for 24 hours to allow for cell adherence. 1 μL of 100× DMSO solutions were added to each well and incubations/photoirradiation were performed as described above. After 24 hours, the supernatant culture medium was carefully removed and the cells were incubated with 100 μL MTT (0.5 mg/mL in RPMI) for 4 hours followed by the addition of 10% SDS in 0.01 M HCl (100 μL) and incubation overnight.
# (§5) All incubations were performed at 37° C. and 5% CO2. Absorbance readings were measured at 570 nm and cell viability was normalized to the DMSO control as an average of three trials for non-irradiated samples and an average of two trials for photoirradiated samples with standard deviations.
# Jurkat cells = details: MTT, 24 hrs, with or without photoirradiation
# Description: Jurkat cells were cultured in RPMI 1640 (containing 10% FBS, 2 mM glutamine, 1% Penicillin/Streptomycin) and maintained at 5×10^5 cells/mL. Cells were diluted in RPMI and distributed to a 96-well plate (Corning 3595) at 50,000 cells/well (200 μL/well). […] A positive control for viability of DMSO treated cells along with a positive control for cytotoxicity of camptothecin at 50 μM (5 mM DMSO stock) were included. For photoirradiation, the cells were incubated with the compound of interest for 15 minutes, each well was irradiated for 15 minutes (see photoinactivation protocol-paragraph 0053) and the plate was returned to the incubator for the remainder of the 24 hour incubation. Cells were centrifuged for 5 minutes (180 rcf) and the supernatant culture medium was carefully removed. 100 μL of 3-(4,5-dimethylthiazol-2-yl)-2,5-diphenyltetrazolium bromide (MTT, 0.5 mg/mL in RPMI) was added to each well and incubated for 4 hours followed by the addition of 10% SDS in 0.01 M HCl (100 μL) and incubation overnight.
# as §5
# E. coli = test: Photoinactivation of bacteria, E. coli; assay type: cell-based; details: 2 μM peptide followed by photoirradiation
# Description: as §3
# A. baumannii (LOS−) [5] = test: Fluorescence microscopy of A. baumannii (LOS−) staining; assay type: cell-based, A. baumannii (AB5075 LOS−); details: TAMRA labeled peptide, 2 μM
# Description: as §2
# A. baumannii (LOS−) [6] = test: Flow cytometry analysis of A. baumannii (LOS−) staining; assay type: cell-based, A. baumannii (AB5075 LOS−); details: for binding of negative controls to A. baumannii (LOS−) compared with KAM8: 1 μM, 1 mg/mL BSA (FIG. 21B)
# Description: as §1
# [7] = test system: wild type A. baumannii (LOS+); test: Fluorescence microscopy and flow cytometry of wild type A. baumannii (LOS+) staining; assay type: cell-based, A. baumannii (AB5075); details: microscopy, same conditions as LOS− strain (legend FIG. 5B: 10 μM for LOS+)
# Description: as §1, §2
# LOS− A. baumannii = test: Photoinactivation of bacteria, A. baumannii (LOS−); assay type: cell-based, A. baumannii (AB5075 LOS−); details: for A. baumannii (LOS−) cell death by controls: at these concentrations, photoirradiation (FIG. 5C)
# Description: as §3
# [8] = Aggregation of peptide in flow cytometry samples; assay type: physicochemical; details: concentrations higher than 3 μM
# [9] = test system: wild-type (LOS+) A. baumannii; test: Photoinactivation of bacteria, A. baumannii (LOS+); assay type: cell-based, A. baumannii (AB5075); details: same conditions, 2 μM, photoirradiation (FIG. 5D)
# Description: as §3
# Chain of HSA (P02768 25-609): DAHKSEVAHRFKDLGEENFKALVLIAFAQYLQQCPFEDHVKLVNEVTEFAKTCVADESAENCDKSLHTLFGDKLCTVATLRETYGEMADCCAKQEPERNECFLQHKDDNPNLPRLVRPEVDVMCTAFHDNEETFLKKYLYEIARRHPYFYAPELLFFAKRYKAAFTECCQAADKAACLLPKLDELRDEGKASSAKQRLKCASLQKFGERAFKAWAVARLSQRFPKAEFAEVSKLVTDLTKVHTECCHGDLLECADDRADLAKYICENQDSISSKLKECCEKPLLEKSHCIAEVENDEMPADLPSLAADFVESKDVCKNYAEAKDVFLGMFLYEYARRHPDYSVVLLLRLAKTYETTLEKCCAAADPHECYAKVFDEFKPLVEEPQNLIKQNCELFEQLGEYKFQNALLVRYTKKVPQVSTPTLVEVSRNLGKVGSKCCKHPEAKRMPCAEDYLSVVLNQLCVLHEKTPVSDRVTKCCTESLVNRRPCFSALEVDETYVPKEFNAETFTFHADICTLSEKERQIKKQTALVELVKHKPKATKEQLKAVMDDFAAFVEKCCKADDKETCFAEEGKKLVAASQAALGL
molecule,measurement,setting,value
"CC(=O)c1ccc(OCCCNC(=O)CSC[C@H](NC(=O)[C@H](C)N)C(=O)N[C@H](C(=O)N[C@@H](CO)C(=O)N2CCC[C@H]2C(=O)N[C@@H](CCCNC(=N)N)C(=O)N[C@@H](CO)C(=O)N[C@@H](Cc2c[nH]cn2)C(=O)N[C@@H](CCC(=O)O)C(=O)N[C@@H](CSCC(=O)NCCCOc2ccc(C(C)=O)c(B(O)O)c2)C(=O)NCC(=O)NCC(=O)NCC(=O)N[C@@H](CNC(=O)c2ccc3c(c2)C(=O)OC32c3ccc(O)cc3Oc3cc(O)ccc32)C(N)=O)C(C)C)cc1B(O)O [KAM5, ACmVSPRSHECmGGGDap*] (H-AC(X1)VSPRSHEC(X1)GGG[Dap](5FAM)-NH2; N-terminus assumed)",potency for labeling S. aureus cells compared with KAM14-17,S. aureus [1]; flow cytometry (FIG. 18),superior potency
same,S. aureus binding potency compared with Hlys-AB1,"S. aureus [1]; flow cytometry, 1 mg/mL BSA (FIG. 15)",much greater than that of Hlys-AB1
same,staining of B. subtilis,Bacillus subtilis,negligible staining
same,S. aureus cell death by controls,S. aureus [2],did not elicit cell death
same,binding to BSA,BSA,did show binding
same,staining of methicillin-resistant S. aureus compared with strain used in phage display,[3],equally potent staining
same,staining of E. coli,"Escherichia coli; up to 10 μM peptide, flow cytometry with 1 mg/mL BSA and microscopy",negligible staining
same,binding to HSA,HSA,did show binding
same,effect of BSA addition on S. aureus staining,"S. aureus [4]; 2 μM peptide, BSA up to 10 mg/mL",did not inhibit
same,fluorescence staining of S. aureus cells,"S. aureus [4]; TAMRA labeled peptide, 2 μM",strong fluorescence staining
"CC(=O)c1ccc(OCCCNC(=O)CSC[C@H](NC(=O)[C@H](C)N)C(=O)N[C@H](C(=O)N[C@@H](CO)C(=O)N2CCC[C@H]2C(=O)N[C@@H](CCCNC(=N)N)C(=O)N[C@@H](CO)C(=O)N[C@@H](Cc2c[nH]cn2)C(=O)N[C@@H](CCC(=O)O)C(=O)N[C@@H](CSCC(=O)NCCCOc2ccc(C(C)=O)c(B(O)O)c2)C(=O)NCC(=O)NCC(=O)NCC(=O)N[C@@H](CNC(=O)c2ccc3c(c2)C(=O)OC32c3cc(Br)c(O)c(Br)c3Oc3c2cc(Br)c(O)c3Br)C(N)=O)C(C)C)cc1B(O)O [KAM5-Eosin, ACmVSPRSHECmGGGDap*] (H-AC(X1)VSPRSHEC(X1)GGG[Dap](X2)-NH2; N-terminus assumed)",cell killing of S. aureus,S. aureus [2]; 1 μM,74%
same,cell killing of S. aureus,S. aureus [2]; 2 μM,92%
same,cell death of B. subtilis,B. subtilis,no significant cell death
same,cell killing of MRSA compared with S. aureus strain used in selection,MRSA,comparable percentage of cell killing; also recorded: comparable potency
same,"mammalian cell toxicity, HEK 293T cells",HEK293T cells,no mammalian cell toxicity
same,"mammalian cell toxicity, Jurkat cells",Jurkat cells,no mammalian cell toxicity
same,cell death of E. coli,E. coli,no significant cell death
"CC(=O)c1ccc(OCCCNC(=O)CSC[C@H](NC(=O)[C@H](C)N)C(=O)N[C@H](C(=O)N[C@@H](CC(C)C)C(=O)N2CCC[C@H]2C(=O)N[C@@H](CC(N)=O)C(=O)NCC(=O)N2CCC[C@H]2C(=O)N[C@@H](CCCNC(=N)N)C(=O)N[C@@H](CSCC(=O)NCCCOc2ccc(C(C)=O)c(B(O)O)c2)C(=O)NCC(=O)NCC(=O)NCC(=O)N[C@@H](CNC(=O)c2ccc3c(c2)C(=O)OC32c3ccc(O)cc3Oc3cc(O)ccc32)C(N)=O)[C@@H](C)O)cc1B(O)O [KAM8, ACmTLPNGPRCmGGGDap*] (H-AC(X1)TLPNGPRC(X1)GGG[Dap](5FAM)-NH2; N-terminus assumed)",fluorescence staining of LOS− A. baumannii,A. baumannii (LOS−) [5],bright fluorescence staining
same,effect of BSA on binding to A. baumannii (LOS−),A. baumannii (LOS−) [6]; 1 mg/mL BSA,enhanced bacterial staining
same,fluorescence staining of wild type A. baumannii (LOS+),[7],little fluorescence staining
same,binding to E. coli,"Escherichia coli; microscopy, TAMRA labeled peptide, 2 μM, 1 mg/mL BSA (FIG. 22)",no binding
same,A. baumannii (LOS−) cell death by controls,LOS− A. baumannii,did not elicit A. baumannii cell death
same,binding to S. aureus,"S. aureus [4]; TAMRA labeled peptide, 2 μM, 1 mg/mL BSA (FIG. 22)",no binding
"O=C1OC2(c3ccccc31)c1cc(Br)c(O)c(Br)c1Oc1c2cc(Br)c(O)c1Br [eosin, reference compound]",S. aureus cell death by controls,S. aureus [2],did not elicit cell death
same,A. baumannii (LOS−) cell death by controls,LOS− A. baumannii,did not elicit A. baumannii cell death
ACAKIFTGCCGGGDap* [KAM14],aggregation,[8],aggregation at higher concentrations
ACTLPNGPRCGGGDap* [KAM8-Cyclic],binding of negative controls to A. baumannii (LOS−) compared with KAM8,A. baumannii (LOS−) [6],much reduced binding
ACVSPRSHECGGGDap* [KAM5-Cyclic],S. aureus staining of control peptides,S. aureus [1]; flow cytometry,little S. aureus staining
ACmGPTAKYICmGGGDap* [KAM6],S. aureus staining of control peptides,S. aureus [1]; flow cytometry,no bacterial staining
same,binding of negative controls to A. baumannii (LOS−) compared with KAM8,A. baumannii (LOS−) [6],much reduced binding
ACmTLPNGPRCmGGGDap* [KAM8-Eosin],cell killing of LOS− A. baumannii,LOS− A. baumannii; 15 min light,> 90%
same,killing of wild-type (LOS+) A. baumannii,[9],little killing
